Assay results published in ChEMBL document CHEMBL1201862, “PubChem BioAssay data set” (2004).
Activity calls are given as the source filed them.

Tests used:
Prothrombin = Prothrombin (Homo sapiens, UniProt P00734); assay: Thrombin 1536 HTS Dose Response Confirmation. [Related pubchem assays: 1046 (Thrombin 1536 HTS; hits were confirmed in this assay)]; format: functional
[1] = viability inhibitors of stage V gametocytes – luminescence, dose response (AID 1117278); format: functional, cell-based;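 note: gametocytes exposed to compound for 24 hours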
[2] = viability loss in human Jurkat cells – cell-based, luminescence, cytotoxicity control for P. falciparum gametocyte viability project, dose response (AID 1117277); format: functional;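 note: potency reflects loss of cellular ATP meaning fewer viable cells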
Mucolipin-3 = target: T1, Mucolipin-3 (Homo sapiens, UniProt Q8TDD5); assay: Dose response cell-based high-throughput screening assay for agonists of the transient receptor potential channel ML3 (TRPML3). [Related pubchem assays: 1526, 1424, 1448 ]; format: functional
T1 sequence (Q8TDD5 whole entry): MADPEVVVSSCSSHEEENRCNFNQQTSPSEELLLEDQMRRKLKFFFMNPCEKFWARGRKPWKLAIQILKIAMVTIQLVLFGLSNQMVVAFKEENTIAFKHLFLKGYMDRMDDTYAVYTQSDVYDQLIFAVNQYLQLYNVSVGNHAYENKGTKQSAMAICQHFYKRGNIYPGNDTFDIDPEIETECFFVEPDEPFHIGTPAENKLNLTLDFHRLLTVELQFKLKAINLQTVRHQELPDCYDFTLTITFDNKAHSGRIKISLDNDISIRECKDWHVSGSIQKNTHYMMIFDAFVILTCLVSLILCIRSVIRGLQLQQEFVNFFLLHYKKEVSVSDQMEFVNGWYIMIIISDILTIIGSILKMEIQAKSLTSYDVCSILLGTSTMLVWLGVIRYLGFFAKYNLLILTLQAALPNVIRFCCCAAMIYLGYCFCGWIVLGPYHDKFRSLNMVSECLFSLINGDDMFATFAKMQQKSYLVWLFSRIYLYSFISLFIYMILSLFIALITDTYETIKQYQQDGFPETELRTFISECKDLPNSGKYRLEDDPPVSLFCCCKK

Ion channel NompC = Ion channel NompC (Danio rerio, UniProt Q7T1G6); assay: Fluorescence counterscreen assay for TRPML3 agonists: dose response cell-based high-throughput screening assay to identify agonists of the transient receptor potential channel N1 (TRPN1). [Related pubchem assays: 1526, 1424, 1448 ]; format: functional
Sequence of Ion channel NompC (Q7T1G6 whole entry): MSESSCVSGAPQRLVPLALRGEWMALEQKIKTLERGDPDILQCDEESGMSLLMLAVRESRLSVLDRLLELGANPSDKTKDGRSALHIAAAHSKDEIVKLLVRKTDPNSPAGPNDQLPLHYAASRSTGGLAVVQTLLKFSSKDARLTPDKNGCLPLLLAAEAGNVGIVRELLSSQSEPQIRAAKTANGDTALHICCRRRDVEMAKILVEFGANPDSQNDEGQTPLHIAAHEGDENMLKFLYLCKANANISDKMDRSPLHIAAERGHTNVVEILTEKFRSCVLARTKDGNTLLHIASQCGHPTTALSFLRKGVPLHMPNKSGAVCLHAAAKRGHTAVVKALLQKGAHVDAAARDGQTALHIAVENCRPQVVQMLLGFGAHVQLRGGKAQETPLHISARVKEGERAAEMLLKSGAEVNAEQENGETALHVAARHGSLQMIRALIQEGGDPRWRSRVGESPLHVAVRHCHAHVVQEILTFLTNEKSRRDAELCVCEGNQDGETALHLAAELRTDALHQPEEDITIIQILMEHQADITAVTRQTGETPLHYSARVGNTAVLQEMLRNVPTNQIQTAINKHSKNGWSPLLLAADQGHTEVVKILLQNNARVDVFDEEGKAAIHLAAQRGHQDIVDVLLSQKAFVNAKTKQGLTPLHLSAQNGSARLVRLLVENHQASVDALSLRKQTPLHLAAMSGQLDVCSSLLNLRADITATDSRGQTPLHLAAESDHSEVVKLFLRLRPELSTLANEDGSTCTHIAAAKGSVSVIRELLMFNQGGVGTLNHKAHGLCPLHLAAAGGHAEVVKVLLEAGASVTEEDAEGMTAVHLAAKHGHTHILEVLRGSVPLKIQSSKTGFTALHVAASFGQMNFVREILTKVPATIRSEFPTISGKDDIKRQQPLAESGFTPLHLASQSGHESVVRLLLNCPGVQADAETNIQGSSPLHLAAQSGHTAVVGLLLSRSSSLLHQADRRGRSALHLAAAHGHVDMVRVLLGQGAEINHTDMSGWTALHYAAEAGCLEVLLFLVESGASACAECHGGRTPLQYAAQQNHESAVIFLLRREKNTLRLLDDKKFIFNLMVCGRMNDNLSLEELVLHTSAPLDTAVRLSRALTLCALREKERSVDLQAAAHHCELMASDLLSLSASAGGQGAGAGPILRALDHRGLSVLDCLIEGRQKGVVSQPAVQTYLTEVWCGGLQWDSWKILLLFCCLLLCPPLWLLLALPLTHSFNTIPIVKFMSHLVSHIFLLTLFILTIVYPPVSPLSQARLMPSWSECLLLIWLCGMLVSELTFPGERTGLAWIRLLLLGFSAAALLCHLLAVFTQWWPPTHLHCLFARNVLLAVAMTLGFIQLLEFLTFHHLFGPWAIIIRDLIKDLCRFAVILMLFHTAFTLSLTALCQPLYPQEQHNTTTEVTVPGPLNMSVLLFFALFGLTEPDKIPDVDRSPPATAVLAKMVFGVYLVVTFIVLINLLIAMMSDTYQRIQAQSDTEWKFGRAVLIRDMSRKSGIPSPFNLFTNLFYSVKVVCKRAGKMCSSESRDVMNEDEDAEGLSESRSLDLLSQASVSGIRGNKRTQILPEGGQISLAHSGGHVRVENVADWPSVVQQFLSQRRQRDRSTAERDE

[3] = viability of uninfected HEp-2 cells – cell-based, HTS, cytotoxicity control for RSV inhibitor project, dose response (AID 2410); format: functional; conditions: human respiratory syncytial virus
[4] = Trypanosoma cruzi growth suppression in host cells – NIH3T3 host cells, beta-gal luminescence, confirmation (AID 2044); format: functional, cell-based;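 note: intracellular parasites grown in NIH/3T3 mouse fibroblasts as host cells; luminescent beta-galactosidase reporter signal from transgenic T. cruzi replicating inside host cells; inhibitors lower the luminescence signal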
[5] = NIH3T3 cell viability loss – ATP luminescence, mouse fibroblasts, counter-screen, dose response (AID 2010); format: functional, cell-based;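 note: cells exposed to compound for about 90 hours before reading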
[6] = target: Eukaryotic translation initiation factor 4E (Mus musculus, UniProt P63073); assay: blockers of eIF4G binding by eIF4E – biochemical, TR-FRET, dose response (AID 855); format: functional;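 note: potency for disrupting eIF4E binding to eIF4GI seen as loss of FRET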
Sequence of Eukaryotic translation initiation factor 4E (P63073 whole entry): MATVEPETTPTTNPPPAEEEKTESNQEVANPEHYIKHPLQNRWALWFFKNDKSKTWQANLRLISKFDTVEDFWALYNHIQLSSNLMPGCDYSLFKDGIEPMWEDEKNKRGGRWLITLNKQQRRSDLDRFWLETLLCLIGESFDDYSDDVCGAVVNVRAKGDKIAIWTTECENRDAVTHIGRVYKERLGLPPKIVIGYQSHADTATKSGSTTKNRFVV

NADPH oxidase 1 = target: T2, NADPH oxidase 1 (Homo sapiens, UniProt Q9Y5S8); format: functional, cell-based;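 note: Cell-based assay with luminescence read-out, IC50 derived from inhibitor dose-response curves; intracellular ROS from endogenous NOX1 in intact HT29 colon cancer cells; potency of inhibitors that lower the ROS luminescence signal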
T2 sequence (Q9Y5S8 whole entry): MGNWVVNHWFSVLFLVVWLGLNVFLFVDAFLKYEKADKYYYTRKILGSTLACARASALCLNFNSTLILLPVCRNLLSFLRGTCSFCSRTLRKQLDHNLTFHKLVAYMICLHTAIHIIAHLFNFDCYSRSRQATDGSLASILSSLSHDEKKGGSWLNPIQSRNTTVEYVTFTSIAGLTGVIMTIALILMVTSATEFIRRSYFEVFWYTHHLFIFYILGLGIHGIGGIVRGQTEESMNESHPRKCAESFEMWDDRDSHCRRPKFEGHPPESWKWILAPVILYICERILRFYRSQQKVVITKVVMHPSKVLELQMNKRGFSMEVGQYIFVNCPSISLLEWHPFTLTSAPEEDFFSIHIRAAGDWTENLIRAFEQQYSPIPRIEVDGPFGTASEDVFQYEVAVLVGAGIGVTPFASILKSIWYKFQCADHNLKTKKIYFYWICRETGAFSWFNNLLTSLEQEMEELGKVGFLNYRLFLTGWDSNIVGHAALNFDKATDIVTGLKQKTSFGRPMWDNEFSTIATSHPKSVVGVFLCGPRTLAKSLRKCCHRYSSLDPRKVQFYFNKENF

[7] = test system: Streptococcus sp. 'group A'; assay: Streptococcus pyogenes SK(-)GAS viability under kanamycin – luminescence, BacTiterGlo, confirmation, counter-screen for streptokinase expression inhibitor project, dose response (AID 1900); format: functional, organism-based
[8] = A cytotoxicity screen of small molecule inhibitors of the PhoP region in Salmonella typhi identified in the primary screen. [Related pubchem assays: 1850, 1864, 1985 ]; format: functional
[9] = target: T3, Heat shock factor protein 1 (Mus musculus, UniProt P38532); assay: decrease of HSF1-responsive luciferase luminescence – cell-based, NIH3T3, dose retest, confirmation (AID 2382); format: functional;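 note: NIH3T3 fibroblasts with HSF1-driven luciferase reporter stressed by proteasome inhibitor MG132; luminescence from HSF1-driven luciferase expression after 8 hours of MG132 stress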
T3 sequence (P38532 whole entry): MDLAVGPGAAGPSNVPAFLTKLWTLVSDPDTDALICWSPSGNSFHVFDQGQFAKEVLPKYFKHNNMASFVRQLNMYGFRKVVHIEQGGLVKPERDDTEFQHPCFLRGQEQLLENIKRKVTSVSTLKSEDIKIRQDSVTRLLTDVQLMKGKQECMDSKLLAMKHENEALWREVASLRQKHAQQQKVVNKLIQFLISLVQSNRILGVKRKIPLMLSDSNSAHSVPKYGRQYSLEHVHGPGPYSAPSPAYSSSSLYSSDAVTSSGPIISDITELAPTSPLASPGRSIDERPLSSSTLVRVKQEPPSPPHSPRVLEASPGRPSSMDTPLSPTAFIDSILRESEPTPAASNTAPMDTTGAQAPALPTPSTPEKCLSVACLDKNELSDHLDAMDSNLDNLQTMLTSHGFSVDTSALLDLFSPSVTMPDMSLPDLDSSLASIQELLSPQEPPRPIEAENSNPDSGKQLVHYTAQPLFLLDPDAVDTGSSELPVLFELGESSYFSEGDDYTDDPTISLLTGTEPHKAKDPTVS

Streptococcus = assay: GAS UMAA2166 growth inhibition – luminescence, BacTiterGlo, counter-screen for streptokinase expression inhibitor project, dose response (AID 1915); format: functional, organism-based;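 note: potency for reduction of bacterial viability or growth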
Genome polyprotein = target: T4, Genome polyprotein (Hepatitis C virus, UniProt Q2Q167); assay: disruption of hepatitis C core self-association – biochemical, TR-FRET, dose response (AID 2159); parameters: species or system Hepacivirus hominis;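 note: blocks dimerization of HCV core protein measured by TR-FRET between tagged core106 pairs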
T4 sequence (Q2Q167 whole entry): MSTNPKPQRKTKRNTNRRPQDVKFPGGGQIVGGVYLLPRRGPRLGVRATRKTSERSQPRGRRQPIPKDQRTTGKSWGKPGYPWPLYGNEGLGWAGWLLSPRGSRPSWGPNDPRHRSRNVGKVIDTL

[10] = RKO cell viability reduction, dose response, CellTiter-Glo luminescence (AID 1117322); format: functional
[11] = SNU-C1 cell viability reduction, dose response, CellTiter-Glo luminescence (AID 1117323); format: functional, cell-based
Cytochrome P450 1A2 = target: T5, Cytochrome P450 1A2 (Homo sapiens, UniProt P05177);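 note: PubChem cytochrome P450 panel assay, CYP1A2 panel member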
T5 sequence (P05177 whole entry): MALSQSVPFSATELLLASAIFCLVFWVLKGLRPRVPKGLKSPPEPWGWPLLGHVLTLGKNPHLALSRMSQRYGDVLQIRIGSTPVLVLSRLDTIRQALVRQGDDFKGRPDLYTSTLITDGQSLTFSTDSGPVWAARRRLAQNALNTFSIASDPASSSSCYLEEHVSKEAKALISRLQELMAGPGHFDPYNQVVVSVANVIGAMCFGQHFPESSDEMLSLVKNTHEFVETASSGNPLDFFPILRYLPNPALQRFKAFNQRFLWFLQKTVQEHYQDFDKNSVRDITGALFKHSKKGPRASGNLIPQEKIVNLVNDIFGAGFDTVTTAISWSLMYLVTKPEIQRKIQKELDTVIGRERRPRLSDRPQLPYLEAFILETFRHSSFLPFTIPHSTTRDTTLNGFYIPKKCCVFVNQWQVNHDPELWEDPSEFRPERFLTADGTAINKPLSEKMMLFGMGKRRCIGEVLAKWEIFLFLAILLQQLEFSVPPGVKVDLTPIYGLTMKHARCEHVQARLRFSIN

INS1 = assay: INS-1E survival protection against cytokine death – cell-based, luminescence, retest, dose response (AID 449756); format: functional; conditions: Rattus norvegicus;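 note: cell death triggered by IL-1 beta plus TNF-alpha plus IFN-gamma mixture; protective hits raise ATP signal compared with cytokine alone wells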
[12] = rise of 4N DNA cells, HeLa – IC50, dose response (AID 1117351); format: functional, cell-based
[13] = target: Heat shock protein HSP 90-alpha (Homo sapiens, UniProt P07900); format: functional, organism-based
[14] = rise of 2N DNA cells, HeLa – IC50, dose response (AID 1117349); format: functional, cell-based
[15] = HCT116 cell viability decrease, GSK3B pretreatment – CellTiter-Glo, IC50, dose response (AID 1117339); format: functional; conditions: HCT-116
[16] = cytotoxicity toward HCT116 cells – cell-based, CellTiter-Glo luminescence, IC50, dose response (AID 1117332); format: functional; conditions: HCT-116
[17] = CellTiter-Glo luminescence survival assay, SW480 colon tumor line, concentration-response curve, half-maximal inhibitory concentration (AID 1117338); format: functional
[18] = Reduced DLD-1 viability, concentration-response, CellTiter-Glo luminescence (AID 1117352); format: functional
[19] = cytotoxicity toward Colo320 cells – cell-based, CellTiter-Glo luminescence, IC50, dose response (AID 1117334); format: functional; conditions: COLO 320
Vero = assay: cells; format: functional, cell-based; conditions: Chlorocebus sabaeus
[20] = HPDE-C7 pancreatic duct cell viability loss – fluorescence, HTS (AID 430); format: functional, cell-based; conditions: Homo sapiens
[21] = viability loss of HPDE-C7K cells – cell-based, fluorescence, HTS, primary screen (AID 431); format: functional; conditions: Homo sapiens

Compound: O=C(CSc1nc2ncnc-2c(O)[nH]1)NC1CCCCC1
- IC50 (Prothrombin): > 50 µM (not active)

Compound: O=C(CC(Nc1ccc(F)cc1)C(=O)OCC(=O)c1cccs1)c1ccccc1 (stereo unspecified)
- IC50 (Prothrombin): 2.82 µM (active)

Compound: O=C(c1ccco1)N1CCN(C(=O)C2c3ccccc3Oc3ccccc32)CC1
- IC50 [1]: > 109 µM (inactive)
- IC50 [2]: 64.4 µM (inactive)

Compound: COc1ccc(S(=O)(=O)N(CC(=O)N2CCOCC2)c2cc(Cl)ccc2OC)cc1OC
- EC50 (Mucolipin-3): 4.75 µM (active)
- EC50 (Ion channel NompC): > 29.9 µM (not active)

Compound: Cc1ccc(CN2CCN(Cc3ccc(-n4cccn4)cc3)CC2CCO)cc1 (stereo unspecified)
- IC50 [1]: > 109 µM (inactive)
- IC50 [2]: > 83.4 µM (inactive)

Compound: Cn1c2ccccc2c(=O)c2c(=O)n(Cc3ccco3)c(COc3ccccc3)nc21
- IC50 (cells): 21.2 µM (active)
- CC50 [3]: 32.8 µM (active)
- EC50 [4]: 0.123 µM (active)
- EC50 [5]: > 60 µM (not active)

Compound: CCOc1ccccc1OCc1nn2c(COc3ccccc3)nnc2s1
- IC50 [6]: > 64 µM (inactive)

Compound: COc1ccc(-c2nc(-c3ccc(OC)cc3)c(-c3ccc(OC)cc3)[nH]2)cc1
- IC50 (NADPH oxidase 1): > 17 µM (not active)

Compound: CCc1cccc2c(C(=O)COC(=O)c3ccc([N+](=O)[O-])s3)c[nH]c12
- EC50 [7]: 0.497 µM (active)
- EC50 [8]: > 50 µM (active)
- EC50 [4]: 0.739 µM (active)
- EC50 [9]: 7.75 µM (active)
- EC50 (Streptococcus): 1.03 µM (active)
- EC50 [5]: > 30 µM (not active)

Compound: CC(C)(C)c1ccc(C(=O)NNC(=O)Cc2ccccc2)cc1
- EC50 [8]: > 50 µM (active)

Compound: O=C(/C=C/c1ccc(Br)o1)OCc1nc(O)c2sccc2n1
- IC50 (Genome polyprotein): 18.2 µM (not active)

Compound: Cc1cc(C2CCCCC2)n(O)c(=O)c1 [CICLOPIROX OLAMINE]
- IC50 [10]: 0.233 µM (active)
- IC50 [11]: > 20 µM (inactive)
- AC50 (Cytochrome P450 1A2): 15.8 µM (inconclusive)
- AC50 (INS1): 0.78 µM (active)
- IC50 [12]: > 10 µM (inactive)
- AC50 [13]: < 0.195 µM (active)
- IC50 [14]: > 10 µM (inactive)
- IC50 [15]: 0.39 µM (active)
- IC50 [16]: 0.656 µM (active)
- IC50 [17]: 0.469 µM (active)
- IC50 [18]: 0.316 µM (active)
- IC50 [19]: 0.208 µM (active)

Compound: CC(=O)Nc1ccc(-c2nc(-c3ccccc3)c(-c3ccccc3)[nH]2)cc1
- IC50 (NADPH oxidase 1): > 17 µM (not active)

Compound: O=C(Oc1ccc(Cl)cc1)c1sc2ccccc2c1Cl
- IC50 (NADPH oxidase 1): > 17 µM (not active)

Compound: O=C(O)c1cc(-c2ccc(/C=C3/SC(=S)N(Cc4ccccc4)C3=O)o2)ccc1Cl
- IC50 [6]: 15.1 µM (active)

Compound: Cc1ccc2c(c1)CC1(CN2C)C(=O)OC(C)(C)OC1=O
- IC50 (Prothrombin): 1.69 µM (active)

Compound: Cc1cc(C)c(C2=NOC3C4CCC(C4)C23)c(C)c1 (stereo unspecified)
- EC50 (Mucolipin-3): 1.77 µM (active)
- EC50 (Ion channel NompC): > 29.9 µM (not active)

Compound: CN(C1CCS(=O)(=O)C1)S(=O)(=O)c1ccccc1 (stereo unspecified)
- IC50 [1]: > 109 µM (inactive)
- IC50 [2]: > 83.3 µM (inactive)

Compound: COc1cccc(NC(=O)CN(C)C(=O)c2cc3c(s2)CCC3)c1
- IC50 (Genome polyprotein): > 49.8 µM (not active)

Compound: O=C(NC(Cc1c[nH]c2ccccc12)C(=O)Nc1ccc(F)cc1)c1cccs1 (stereo unspecified)
- IC50 (cells): 12.8 µM (active)
- CC50 [3]: 15.6 µM (active)
- IC50 (Vero): 8.41 µM (active)

Compound: CCn1c(C)c(C(C)=O)c(N2CCN(C(=O)c3ccco3)CC2)nc1=S
- IC50 [6]: > 64 µM (inactive)

Compound: Cc1ccccc1N1CCN(S(=O)(=O)c2ccccc2)CC1
- EC50 (Mucolipin-3): 5.11 µM (active)
- EC50 (Ion channel NompC): > 29.9 µM (not active)

Compound: CCCCOc1cccc(C(=O)Nc2ccc(N3CCN(CC)CC3)cc2)c1
- EC50 [20]: > 20 µM (not active)
- EC50 [21]: > 20 µM (not active)
